Each structure is given as a SMILES string.

For orientation: logP means a log measure of how a compound divides between an organic and an aqueous phase. Low values mean a more hydrophilic compound, high ones a more lipophilic compound.

Take `Cn1c(N)c(NC=O)c(=O)n(C)c1=O`: the logP is -0.64.

`Cn1c(=O)[nH]c2nc[nH]c2c1=O` came in with a logP of -0.27.

In the case of `Cn1c(=O)[nH]c(=O)c2[nH]c(=O)[nH]c21`, the logP was -1.08.

The compound `Cn1c(=O)[nH]c2[nH]c(=O)n(C)c2c1=O` yielded a logP of -0.22.

`Cn1c(=O)c2[nH]c(=O)[nH]c2n(C)c1=O`: the logP was -0.52.

With `Cn1c(=O)[nH]c2[nH]c(=O)[nH]c(=O)c21`, the logP was -1.18.

`CN(C=O)c1c(N)n(C)c(=O)n(C)c1=O` gave a logP of -1.32.

In turn, `Cn1cnc2[nH]c(=O)[nH]c(=O)c21` had a logP of -0.89.

Take `Cn1c(=O)[nH]c2[nH]c(=O)[nH]c2c1=O`: the logP is -0.57.

As to `Cn1c(=O)[nH]c(=O)c2[nH]cnc21`, the logP is -0.5.

The compound `Cn1c(=O)[nH]c(=O)c2c1[nH]c(=O)n2C` came in with a logP of -1.33.

The compound `Cn1c(=O)c2c([nH]c(=O)n2C)n(C)c1=O` registered a logP of -0.37.

As to `CN(C=O)c1c(N)n(C)c(=O)[nH]c1=O`, the logP was -1.3.

Compound `CN(C=O)c1c(N)[nH]c(=O)n(C)c1=O` yielded a logP of -2.03.

Values taken from the OPERA property sets (Mansouri et al. 2018).
